Source: PubChem BioAssay (NCI)
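The concentration for 50% growth inhibition is given as GI50. TGI: total growth inhibition.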

What was measured:
Assay in all cases: NCI anticancer screen, dose series, 384-well format
HOP-92 NSCLC = system: HOP-92 NSCLC
PC-3 prostate = system: PC-3 prostate
K-562 leukemia = system: K-562 leukemia
OVCAR-5 ovarian = system: OVCAR-5 ovarian
SF-295 CNS = system: SF-295 CNS
MOLT-4 leukemia = system: MOLT-4 leukemia
NCI-H322M lung = system: NCI-H322M lung
HOP-62 NSCLC = system: HOP-62 NSCLC
EKVX NSCLC = system: EKVX NSCLC
NCI-H460 NSCLC = system: NCI-H460 NSCLC
OVCAR-4 ovarian = system: OVCAR-4 ovarian
A549 NSCLC = system: A549 NSCLC
SN12C renal = system: SN12C renal
M14 melanoma = system: M14 melanoma
CCRF-CEM leukemia = system: CCRF-CEM leukemia
CAKI-1 renal = system: CAKI-1 renal
UACC-62 melanoma = system: UACC-62 melanoma
SK-OV-3 ovarian = system: SK-OV-3 ovarian
NCI/ADR-RES ovarian = system: NCI/ADR-RES ovarian
MDA-MB-231 breast = system: MDA-MB-231 breast
HT29 colon = system: HT29 colon
SF-268 CNS = system: SF-268 CNS
A498 renal = system: A498 renal
DU-145 prostate = system: DU-145 prostate
SW-620 colon = system: SW-620 colon
NCI-H23 lung = system: NCI-H23 lung
HS 578T breast = system: HS 578T breast
SR leukemia = system: SR leukemia
T-47D breast = system: T-47D breast
SK-MEL-2 melanoma = system: SK-MEL-2 melanoma
LOX IMVI melanoma = system: LOX IMVI melanoma
HCT-15 colon = system: HCT-15 colon
HCT-116 colon = system: HCT-116 colon
MDA-MB-468 breast = system: MDA-MB-468 breast
RXF 393 renal = system: RXF 393 renal
MDA-MB-435 melanoma = system: MDA-MB-435 melanoma
OVCAR-3 ovarian = system: OVCAR-3 ovarian
UACC-257 melanoma = system: UACC-257 melanoma
ACHN renal = system: ACHN renal
TK-10 renal = system: TK-10 renal
MALME-3M melanoma = system: MALME-3M melanoma
SNB-75 CNS = system: SNB-75 CNS
RPMI-8226 leukemia = system: RPMI-8226 leukemia
U251 glioblastoma = system: U251 glioblastoma
MCF7 breast = system: MCF7 breast
SK-MEL-28 melanoma = system: SK-MEL-28 melanoma
SK-MEL-5 melanoma = system: SK-MEL-5 melanoma

SMILES: C/C=C1\NC(=O)[C@H]2CSSCCC=C[C@H](CC(=O)N[C@H](C(C)C)C(=O)N2)OC(=O)[C@H](C(C)C)NC1=O
- GI50 (HOP-92 NSCLC): < 10 nM
- TGI (HOP-92 NSCLC): < 10 nM
- GI50 (PC-3 prostate): < 10 nM
- TGI (PC-3 prostate): < 10 nM
- GI50 (K-562 leukemia): < 10 nM
- TGI (K-562 leukemia): < 10 nM
- GI50 (OVCAR-5 ovarian): < 10 nM
- TGI (OVCAR-5 ovarian): < 10 nM
- GI50 (SF-295 CNS): < 10 nM
- TGI (SF-295 CNS): < 10 nM
- GI50 (MOLT-4 leukemia): < 10 nM
- TGI (MOLT-4 leukemia): < 10 nM
- GI50 (NCI-H322M lung): < 10 nM
- TGI (NCI-H322M lung): < 10 nM
- GI50 (HOP-62 NSCLC): < 10 nM
- TGI (HOP-62 NSCLC): < 10 nM
- GI50 (EKVX NSCLC): < 10 nM
- TGI (EKVX NSCLC): 30.8 nM
- GI50 (NCI-H460 NSCLC): < 10 nM
- TGI (NCI-H460 NSCLC): 10.1 nM
- GI50 (OVCAR-4 ovarian): < 10 nM
- TGI (OVCAR-4 ovarian): < 10 nM
- GI50 (A549 NSCLC): < 10 nM
- TGI (A549 NSCLC): < 10 nM
- GI50 (SN12C renal): < 10 nM
- TGI (SN12C renal): < 10 nM
- GI50 (M14 melanoma): < 10 nM
- TGI (M14 melanoma): < 10 nM
- GI50 (CCRF-CEM leukemia): < 10 nM
- TGI (CCRF-CEM leukemia): < 10 nM
- GI50 (CAKI-1 renal): < 10 nM
- TGI (CAKI-1 renal): < 10 nM
- GI50 (UACC-62 melanoma): < 10 nM
- TGI (UACC-62 melanoma): < 10 nM
- GI50 (SK-OV-3 ovarian): < 10 nM
- TGI (SK-OV-3 ovarian): < 10 nM
- GI50 (NCI/ADR-RES ovarian): 2850 nM
- TGI (NCI/ADR-RES ovarian): 13800 nM
- GI50 (MDA-MB-231 breast): < 10 nM
- TGI (MDA-MB-231 breast): < 10 nM
- GI50 (HT29 colon): < 10 nM
- TGI (HT29 colon): < 10 nM
- GI50 (SF-268 CNS): < 10 nM
- TGI (SF-268 CNS): < 10 nM
- GI50 (A498 renal): < 10 nM
- TGI (A498 renal): < 10 nM
- GI50 (DU-145 prostate): < 10 nM
- TGI (DU-145 prostate): < 10 nM
- GI50 (SW-620 colon): < 10 nM
- TGI (SW-620 colon): < 10 nM
- GI50 (NCI-H23 lung): < 10 nM
- TGI (NCI-H23 lung): < 10 nM
- GI50 (HS 578T breast): < 10 nM
- TGI (HS 578T breast): < 10 nM
- GI50 (SR leukemia): < 10 nM
- TGI (SR leukemia): < 10 nM
- GI50 (T-47D breast): < 10 nM
- TGI (T-47D breast): < 10 nM
- GI50 (SK-MEL-2 melanoma): < 10 nM
- TGI (SK-MEL-2 melanoma): < 10 nM
- GI50 (LOX IMVI melanoma): < 10 nM
- TGI (LOX IMVI melanoma): < 10 nM
- GI50 (HCT-15 colon): 82.9 nM
- TGI (HCT-15 colon): 806 nM
- GI50 (HCT-116 colon): < 10 nM
- TGI (HCT-116 colon): < 10 nM
- GI50 (MDA-MB-468 breast): < 10 nM
- TGI (MDA-MB-468 breast): < 10 nM
- GI50 (RXF 393 renal): < 10 nM
- TGI (RXF 393 renal): < 10 nM
- GI50 (MDA-MB-435 melanoma): < 10 nM
- TGI (MDA-MB-435 melanoma): < 10 nM
- GI50 (OVCAR-3 ovarian): < 10 nM
- TGI (OVCAR-3 ovarian): < 10 nM
- GI50 (UACC-257 melanoma): < 10 nM
- TGI (UACC-257 melanoma): < 10 nM
- GI50 (ACHN renal): < 11.9 nM
- TGI (ACHN renal): 23.3 nM
- GI50 (TK-10 renal): < 10 nM
- TGI (TK-10 renal): < 18.1 nM
- GI50 (MALME-3M melanoma): < 10 nM
- TGI (MALME-3M melanoma): < 10 nM
- GI50 (SNB-75 CNS): < 10 nM
- TGI (SNB-75 CNS): < 10 nM
- GI50 (RPMI-8226 leukemia): < 10 nM
- TGI (RPMI-8226 leukemia): < 10 nM
- GI50 (U251 glioblastoma): < 10 nM
- TGI (U251 glioblastoma): < 10 nM
- GI50 (MCF7 breast): < 10 nM
- TGI (MCF7 breast): < 10 nM
- GI50 (SK-MEL-28 melanoma): < 10 nM
- TGI (SK-MEL-28 melanoma): < 10 nM
- GI50 (SK-MEL-5 melanoma): < 10 nM
- TGI (SK-MEL-5 melanoma): < 10 nM
